The results in this text go back to patent US11254663B2 (BRISTOL-MYERS SQUIBB COMPANY, priority 2019, dated 2022).

This test deals with FXR (Homo sapiens (Human), UniProt Q96RI1). The test can be described thus: FXR EC50 (FXR agonist potency reported with each Example). Format: cell-based.
FXR, sequence (Q96RI1 262-486): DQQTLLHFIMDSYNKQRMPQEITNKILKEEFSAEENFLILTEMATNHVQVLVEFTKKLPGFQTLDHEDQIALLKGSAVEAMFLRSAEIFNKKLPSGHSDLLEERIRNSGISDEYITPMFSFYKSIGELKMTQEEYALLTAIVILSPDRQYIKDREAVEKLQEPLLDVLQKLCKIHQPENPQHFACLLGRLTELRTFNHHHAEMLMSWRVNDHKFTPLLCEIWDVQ
`O=C(C1CC(F)(F)C1)N(CC12CCC(c3nc(C4CC4)co3)(CC1)CC2)c1cccc(-c2cnc(C3CC3)o2)c1` [Example 83, N-((4-(4-cyclopropyloxazol-2-yl)bicyclo[2.2.2]octan-1-yl)methyl)-N-(3-(2-cyclopropyloxazol-5-yl)phenyl)-3,3-difluorocyclobutane-1-carboxamide] registered an EC50 of 590 nM. In other words, the sub-micromolar range.
With `CC(F)(F)c1nc(C23CCC(CN(C(=O)C45CC(F)(C4)C5)c4cccc(-c5noc(C6(C)CC6)n5)c4)(CC2)CC3)no1` [Example 179, N-((4-(5-(1,1-difluoroethyl)-1,2,4-oxadiazol-3-yl)bicyclo[2.2.2]octan-1-yl)methyl)-3-fluoro-N-(3-(5-(1-methylcyclopropyl)-1,2,4-oxadiazol-3-yl)phenyl)bicyclo[1.1.1]pentane-1-carboxamide], the response was half-maximal at 58 nM (EC50).
As for `COc1ccc(C23CCC(CN(C(=O)C45CC(F)(C4)C5)c4cccc(-c5nc(C6CC6)no5)c4)(CC2)CO3)cc1` [Example 128, N-(3-(3-Cyclopropyl-1,2,4-oxadiazol-5-yl)phenyl)-3-fluoro-N-((1-(4-methoxyphenyl)-2-oxabicyclo[2.2.2]octan-4-yl)methyl)bicyclo[1.1.1]pentane-1-carboxamide], the figure is 403 nM; as for `O=C(N(CC12CCC(c3noc(C(F)F)n3)(CC1)CC2)c1cccc(-c2noc(C(F)F)n2)c1)C12CC(F)(C1)C2` [Example 184, N-((4-(5-(difluoromethyl)-1,2,4-oxadiazol-3-yl)bicyclo[2.2.2]octan-1-yl)methyl)-N-(3-(5-(difluoromethyl)-1,2,4-oxadiazol-3-yl)phenyl)-3-fluorobicyclo[1.1.1]pentane-1-carboxamide], 58 nM; as for `CC(F)(F)c1nc(C23CCC(CN(C(=O)C45CC(F)(C4)C5)c4cccc(-c5nc(C6CC6)no5)c4)(CC2)CC3)no1` [Example 121, N-(3-(3-cyclopropyl-1,2,4-oxadiazol-5-yl)phenyl)-N-((4-(5-(1,1-difluoroethyl)-1,2,4-oxadiazol-3-yl)bicyclo[2.2.2]octan-1-yl)methyl)-3-fluorobicyclo[1.1.1]pentane-1-carboxamide], 22 nM.
As to `COCc1coc(-c2cccc(N(CC34CCC(c5nc(C6CC6)no5)(CC3)CC4)C(=O)C34CC(F)(C3)C4)c2)n1` [Example 85, N-((4-(3-cyclopropyl-1,2,4-oxadiazol-5-yl)bicyclo[2.2.2]octan-1-yl)methyl)-3-fluoro-N-(3-(4-(methoxymethyl)oxazol-2-yl)phenyl)bicyclo[1.1.1]pentane-1-carboxamide], the EC50 came to 137 nM.
Regarding `CC(C)(C)c1noc(C23CCC(CN(C(=O)C45CC(F)(C4)C5)c4cccc(-c5noc(C6CC6)n5)c4)(CC2)CC3)n1` [Example 171, N-((4-(3-(tert-butyl)-1,2,4-oxadiazol-5-yl)bicyclo[2.2.2]octan-1-yl)methyl)-N-(3-(5-cyclopropyl-1,2,4-oxadiazol-3-yl)phenyl)-3-fluorobicyclo[1.1.1]pentane-1-carboxamide], the midpoint of the response, the EC50, lay at 37.6 nM.
With `N#CC1(c2ccc(C34CCC(CN(C(=O)C56CC(F)(C5)C6)c5cccc(-c6nc(C7CC7)no6)c5)(CC3)CO4)cc2)CC1` [Example 143, N-((1-(4-(1-cyanocyclopropyl)phenyl)-2-oxabicyclo[2.2.2]octan-4-yl)methyl)-N-(3-(3-cyclopropyl-1,2,4-oxadiazol-5-yl)phenyl)-3-fluorobicyclo[1.1.1]pentane-1-carboxamide], the EC50 came out at 89 nM.
`O=C(C1CC(F)(F)C1)N(CC12CCC(c3nc(C4CC4)no3)(CC1)OC2)c1cccc(-c2cc(C3CC3)on2)c1` [Example 200, N-((1-(3-cyclopropyl-1,2,4-oxadiazol-5-yl)-2-oxabicyclo[2.2.2]octan-4-yl)methyl)-N-(3-(5-cyclopropylisoxazol-3-yl)phenyl)-3,3-difluorocyclobutane-1-carboxamide]: a half-maximal effect (EC50) was put at 526 nM.
For `CC1(c2nc(-c3cccc(N(CC45CCC(c6noc(C(F)F)n6)(CC4)CC5)C(=O)C45CC(F)(C4)C5)c3)no2)CC1` [Example 178, N-((4-(5-(difluoromethyl)-1,2,4-oxadiazol-3-yl)bicyclo[2.2.2]octan-1-yl)methyl)-3-fluoro-N-(3-(5-(1-methylcyclopropyl)-1,2,4-oxadiazol-3-yl)phenyl)bicyclo[1.1.1]pentane-1-carboxamide], the EC50 is 73 nM.
The molecule `O=C(N(CC12CCC(c3ccc(C(F)(F)F)cn3)(CC1)CC2)c1cccc(-c2noc(C(F)F)n2)c1)C12CC(F)(C1)C2` [Example 189, N-(3-(5-(difluoromethyl)-1,2,4-oxadiazol-3-yl)phenyl)-3-fluoro-N-((4-(5-(trifluoromethyl)pyridin-2-yl)bicyclo[2.2.2]octan-1-yl)methyl)bicyclo[1.1.1]pentane-1-carboxamide] showed an EC50 of 691 nM. Against the preceding molecule, the EC50 is about 9.5-fold higher.
With `CCNC(=O)N(CC12CCC(c3nc(C4CC4)no3)(CC1)CC2)c1cccc(-c2nc(C3CC3)no2)c1` [Example 95, 1-((4-(3-cyclopropyl-1,2,4-oxadiazol-5-yl)bicyclo[2.2.2]octan-1-yl)methyl)-1-(3-(3-cyclopropyl-1,2,4-oxadiazol-5-yl)phenyl)-3-ethylurea], the EC50 is 590 nM.
The molecule `O=C(C1CCC(F)(F)C1)N(CC12CCC(c3nc(C4CC4)no3)(CC1)OC2)c1cccc(-c2cc(C3CC3)on2)c1` (stereo not drawn) [Example 202, N-((1-(3-cyclopropyl-1,2,4-oxadiazol-5-yl)-2-oxabicyclo[2.2.2]octan-4-yl)methyl)-N-(3-(5-cyclopropylisoxazol-3-yl)phenyl)-3,3-difluorocyclopentane-1-carboxamide] came in with an EC50 of 299 nM.
On to `Cc1cnc(C23CCC(CN(C(=O)C45CC(F)(C4)C5)c4cccc(-c5nc(C(F)F)co5)c4)(CC2)CC3)o1` [Example 45, N-(3-(4-(difluoromethyl)oxazol-2-yl)phenyl)-3-fluoro-N-((4-(5-methyloxazol-2-yl)bicyclo[2.2.2]octan-1-yl)methyl)bicyclo[1.1.1]pentane-1-carboxamide], for which the 50% effective concentration (EC50) turned out to be 258 nM.
On to `O=C(N(CC12CCC(c3nc(C4CC4)co3)(CC1)CC2)c1cccc(-c2cnc(C3CC3)o2)c1)C12CC(F)(C1)C2` [Example 82, N-((4-(4-cyclopropyloxazol-2-yl)bicyclo[2.2.2]octan-1-yl)methyl)-N-(3-(2-cyclopropyloxazol-5-yl)phenyl)-3-fluorobicyclo[1.1.1]pentane-1-carboxamide], for which the response was half-maximal at 48 nM (EC50).
The same measure for `CC(C)(C)c1nc(C23CCC(CN(C(=O)C45CC(F)(C4)C5)c4cncc(-c5nc(C6CC6)no5)c4)(CC2)CC3)no1` [Example 206, N-((4-(5-(tert-butyl)-1,2,4-oxadiazol-3-yl)bicyclo[2.2.2]octan-1-yl)methyl)-N-(5-(3-cyclopropyl-1,2,4-oxadiazol-5-yl)pyridin-3-yl)-3-fluorobicyclo[1.1.1]pentane-1-carboxamide]: 49 nM.
In turn, `CC(F)(F)c1nc(-c2cccc(N(CC34CCC(c5ccc(C(F)(F)F)cn5)(CC3)CC4)C(=O)C34CC(F)(C3)C4)c2)no1` [Example 190, N-(3-(5-(1,1-difluoroethyl)-1,2,4-oxadiazol-3-yl)phenyl)-3-fluoro-N-((4-(5-(trifluoromethyl)pyridin-2-yl)bicyclo[2.2.2]octan-1-yl)methyl)bicyclo[1.1.1]pentane-1-carboxamide] returned a half-maximal effective concentration (EC50) of 281 nM.
Regarding `CC(C)c1nc(C23CCC(CN(C(=O)C45CC(F)(C4)C5)c4cccc(-c5nc(C6CC6)no5)c4)(CC2)CC3)no1` [Example 120, N-(3-(3-cyclopropyl-1,2,4-oxadiazol-5-yl)phenyl)-3-fluoro-N-((4-(5-isopropyl-1,2,4-oxadiazol-3-yl)bicyclo[2.2.2]octan-1-yl)methyl)bicyclo[1.1.1]pentane-1-carboxamide], the EC50 amounted to 15 nM.
`O=C(N(CC12CCC(c3nc(C4CC4)no3)(CC1)CC2)c1cccc(-c2cc(C3CC3)on2)c1)C12CC(F)(C1)C2` [Example 57, N-((4-(3-cyclopropyl-1,2,4-oxadiazol-5-yl)bicyclo[2.2.2]octan-1-yl)methyl)-N-(3-(5-cyclopropylisoxazol-3-yl)phenyl)-3-fluorobicyclo[1.1.1]pentane-1-carboxamide] came in with an EC50 of 19.8 nM.
In turn, `COCc1nc(-c2cccc(N(CC34CCC(c5nc(C6CC6)no5)(CC3)CC4)C(=O)C3CC(C(F)F)C3)c2)cs1` (stereo not drawn) [Example 73, N-((4-(3-cyclopropyl-1,2,4-oxadiazol-5-yl)bicyclo[2.2.2]octan-1-yl)methyl)-3-(difluoromethyl)-N-(3-(2-(methoxymethyl)thiazol-4-yl)phenyl)cyclobutane-1-carboxamide] yielded an EC50 of 341 nM.
For the molecule `O=C(N(CC12CCC(c3nc(C4CC4)no3)(CC1)OC2)c1cccc(-c2noc(C3CC3)n2)c1)C12CC(F)(C1)C2` [Example 203], the EC50 was found to be 74 nM.
Molecule `COc1cc(-c2cccc(N(CC34CCC(c5nc(C)no5)(CC3)CC4)C(=O)C34CC(F)(C3)C4)c2)ccn1` [Example 228, 3-fluoro-N-(3-(2-methoxypyridin-4-yl)phenyl)-N-((4-(3-methyl-1,2,4-oxadiazol-5-yl)bicyclo[2.2.2]octan-1-yl)methyl)bicyclo[1.1.1]pentane-1-carboxamide] displayed an EC50 of 442 nM.
In turn, `CC1(c2nc(C34CCC(CN(C(=O)C56CC(F)(C5)C6)c5cccc(-c6nc(C7CC7)no6)c5)(CC3)CC4)no2)COC1` [Example 122, N-(3-(3-cyclopropyl-1,2,4-oxadiazol-5-yl)phenyl)-3-fluoro-N-((4-(5-(3-methyloxetan-3-yl)-1,2,4-oxadiazol-3-yl)bicyclo[2.2.2]octan-1-yl)methyl)bicyclo[1.1.1]pentane-1-carboxamide] showed an EC50 of 28 nM. Against the preceding molecule, the EC50 is about 16-fold lower.
As for `Cn1nc(C23CCC(CN(C(=O)C4CC(F)(F)C4)c4cccc(-c5nc(C6CC6)no5)c4)(CC2)CC3)cc1C1CC1` [Example 125, N-(3-(3-cyclopropyl-1,2,4-oxadiazol-5-yl)phenyl)-N-((4-(5-cyclopropyl-1-methyl-1H-pyrazol-3-yl)bicyclo[2.2.2]octan-1-yl)methyl)-3,3-difluorocyclobutane-1-carboxamide], the figure is 480 nM.
